According to the NIST ThermoML archive (doi:10.1016/j.fluid.2016.10.026):
± gives the expanded uncertainty stated by the source.

Assay: relative permittivity at zero frequency (dimensionless)
Conditions: 101 kPa, Liquid, capacitive

CC(=O)c1cccs1 [2-acetylthiophene]
Conditions | relative permittivity at zero frequency
278.15 K | 32.38 ± 0.32
280.65 K | 32.01 ± 0.32
283.15 K | 31.64 ± 0.32
285.65 K | 31.28 ± 0.31
288.15 K | 30.87 ± 0.31
290.65 K | 30.47 ± 0.3
293.15 K | 29.94 ± 0.3
295.65 K | 29.69 ± 0.3
298.15 K | 29.19 ± 0.29
300.65 K | 28.92 ± 0.29
303.15 K | 28.47 ± 0.28
305.65 K | 28.14 ± 0.28
308.15 K | 27.76 ± 0.28
310.65 K | 27.43 ± 0.27
313.15 K | 27.05 ± 0.27
315.65 K | 26.75 ± 0.27
318.15 K | 26.32 ± 0.26
320.65 K | 25.95 ± 0.26
323.15 K | 25.68 ± 0.26
325.65 K | 25.33 ± 0.25
328.15 K | 25.02 ± 0.25
330.65 K | 24.7 ± 0.25
333.15 K | 24.33 ± 0.24
335.65 K | 23.98 ± 0.24
338.15 K | 23.6 ± 0.24
